Source: US12077503B2, “Substituted cyclic amides and their use as herbicides” (FMC CORPORATION, priority 2015, dated 2024)

Assays:
Experiment in all cases: Test C preemergence
Assay type in all cases: in vivo
[1] = tested on: wheat (winter wheat, Triticum aestivum); conditions: for Plant response rating, Wheat: scale 0 to 100, 0 no effect, 100 complete control
From the text: (§1) Seeds of plant species selected from blackgrass (Alopecurus myosuroides), ryegrass, Italian (Italian ryegrass, Lolium multiflorum), wheat (winter wheat, Triticum aestivum), Galium (catchweed bedstraw, Galium aparine), corn (Zea mays), crabgrass, large (large crabgrass, Digitaria sanguinalis), foxtail, giant (giant foxtail, Setaria faberii), johnsongrass (Sorghum halepense), lambsquarters (Chenopodium album), morningglory (Ipomoea coccinea), nutsedge, yellow (yellow nutsedge, Cyperus esculentus), pigweed (Amaranthus retroflexus), ragweed (common ragweed, Ambrosia elatior), soybean (Glycine max), barnyardgrass (Echinochloa crus-galli), oilseed rape (Brassica napus), waterhemp (common waterhemp, Amaranthus rudis) and velvetleaf (Abutilon theophrasti) were planted into a blend of loam soil and sand and treated preemergence with test chemicals formulated in a non-phytotoxic solvent mixture which included a surfactant.
(§2) At the same time, plants selected from these crop and weed species and also Kochia (Kochia scoparia), oat, wild (wild oat, Avena fatua), and chickweed (common chickweed, Stellaria media) were planted in pots containing Sunshine Redi-Earth® planting medium comprising spaghnum peat moss, vermiculite, starter nutrients and dolomitic limestone and treated with postemergence applications of test chemicals formulated in the same manner. Plants ranged in height from 2 to 18 cm (1- to 4-leaf stage) for postemergence treatments. Treated plants and controls were maintained in a greenhouse for 13 to 15 d, after which time all species were compared to controls and visually evaluated. Plant response ratings, summarized in Table C, are based on a scale of 0 to 100 where 0 is no effect and 100 is complete control. A dash (-) response means no test result.

[2] = tested on: velvetleaf (Abutilon theophrasti); conditions: for Plant response rating, Velvetleaf: scale 0 to 100, 0 no effect, 100 complete control
From the text: as §1, §2

[3] = tested on: pigweed (Amaranthus retroflexus); conditions: for Plant response rating, Pigweed: scale 0 to 100, 0 no effect, 100 complete control
From the text: as §1, §2

[4] = tested on: Galium (catchweed bedstraw, Galium aparine); conditions: for Plant response rating, Galium: scale 0 to 100, 0 no effect, 100 complete control
From the text: as §1, §2

[5] = tested on: johnsongrass (Sorghum halepense); conditions: for Plant response rating, Johnsongrass: scale 0 to 100, 0 no effect, 100 complete control
From the text: as §1, §2

[6] = tested on: oilseed rape (Brassica napus); conditions: for Plant response rating, Oilseed Rape: scale 0 to 100, 0 no effect, 100 complete control
From the text: as §1, §2

[7] = tested on: crabgrass, large (large crabgrass, Digitaria sanguinalis); conditions: for Plant response rating, Crabgrass, Large: scale 0 to 100, 0 no effect, 100 complete control
From the text: as §1, §2

[8] = tested on: barnyardgrass (Echinochloa crus-galli); conditions: for Plant response rating, Barnyardgrass: scale 0 to 100, 0 no effect, 100 complete control
From the text: as §1, §2

[9] = tested on: morningglory (Ipomoea coccinea); conditions: for Plant response rating, Morningglory: scale 0 to 100, 0 no effect, 100 complete control
From the text: as §1, §2

[10] = tested on: foxtail, giant (giant foxtail, Setaria faberii); conditions: for Plant response rating, Foxtail, Giant: scale 0 to 100, 0 no effect, 100 complete control
From the text: as §1, §2

[11] = tested on: ragweed (common ragweed, Ambrosia elatior); conditions: for Plant response rating, Ragweed: scale 0 to 100, 0 no effect, 100 complete control
From the text: as §1, §2

[12] = tested on: nutsedge, yellow (yellow nutsedge, Cyperus esculentus); conditions: for Plant response rating, Nutsedge, Yellow: scale 0 to 100, 0 no effect, 100 complete control
From the text: as §1, §2

[13] = tested on: blackgrass (Alopecurus myosuroides); conditions: for Plant response rating, Blackgrass: scale 0 to 100, 0 no effect, 100 complete control
From the text: as §1, §2

[14] = tested on: soybean (Glycine max); conditions: scale 0 to 100, 0 no effect, 100 complete control
From the text: as §1, §2

[15] = tested on: waterhemp (common waterhemp, Amaranthus rudis); conditions: for Plant response rating, Waterhemp: scale 0 to 100, 0 no effect, 100 complete control
From the text: as §1, §2

[16] = tested on: lambsquarters (Chenopodium album); conditions: for Plant response rating, Lambsquarters: scale 0 to 100, 0 no effect, 100 complete control
From the text: as §1, §2

[17] = tested on: corn (Zea mays); conditions: for Plant response rating, Corn: scale 0 to 100, 0 no effect, 100 complete control
From the text: as §1, §2

[18] = tested on: ryegrass, Italian (Italian ryegrass, Lolium multiflorum); conditions: for Plant response rating, Ryegrass, Italian: scale 0 to 100, 0 no effect, 100 complete control
From the text: as §1, §2

[19] = 31 g ai/ha, 0 is no effect, 100 is complete control

CC(C)Oc1cccc(C2CN(C)C(=O)C2C(=O)Nc2ccccc2S(C)(=O)=O)c1 (stereo not shown) [Compound 653]
Plant response rating (scale of 0 to 100), Wheat [1, 19]: 0
Plant response rating, Wheat ([1]; 62 g ai/ha): 0
Plant response rating, Wheat ([1]; 125 g ai/ha): 0
Plant response rating, Wheat ([1]; 250 g ai/ha): 40
Plant response rating (scale of 0 to 100), Velvetleaf [2, 19]: 0
Plant response rating, Velvetleaf ([2]; 62 g ai/ha): 25
Plant response rating, Velvetleaf ([2]; 125 g ai/ha): 35
Plant response rating, Velvetleaf ([2]; 250 g ai/ha): 50
Plant response rating (scale of 0 to 100), Pigweed [3, 19]: 30
Plant response rating, Pigweed ([3]; 62 g ai/ha): 20
Plant response rating, Pigweed ([3]; 125 g ai/ha): 50
Plant response rating, Pigweed ([3]; 250 g ai/ha): 85
Plant response rating (scale of 0 to 100), Galium [4, 19]: 0
Plant response rating, Galium ([4]; 62 g ai/ha): 100
Plant response rating, Galium ([4]; 125 g ai/ha): 30
Plant response rating, Galium ([4]; 250 g ai/ha): 40
Plant response rating (scale of 0 to 100), Johnsongrass [5, 19]: 0
Plant response rating, Johnsongrass ([5]; 62 g ai/ha): 0
Plant response rating, Johnsongrass ([5]; 125 g ai/ha): 40
Plant response rating, Johnsongrass ([5]; 250 g ai/ha): 55
Plant response rating (scale of 0 to 100), Oilseed Rape [6, 19]: 0
Plant response rating, Oilseed Rape ([6]; 62 g ai/ha): 0
Plant response rating, Oilseed Rape ([6]; 125 g ai/ha): 30
Plant response rating, Oilseed Rape ([6]; 250 g ai/ha): 85
Plant response rating (scale of 0 to 100), Crabgrass, Large [7, 19]: 90
Plant response rating, Crabgrass, Large ([7]; 62 g ai/ha): 95
Plant response rating, Crabgrass, Large ([7]; 125 g ai/ha): 100
Plant response rating, Crabgrass, Large ([7]; 250 g ai/ha): 100
Plant response rating (scale of 0 to 100), Barnyardgrass [8, 19]: 20
Plant response rating, Barnyardgrass ([8]; 62 g ai/ha): 55
Plant response rating, Barnyardgrass ([8]; 125 g ai/ha): 80
Plant response rating, Barnyardgrass ([8]; 250 g ai/ha): 90
Plant response rating (scale of 0 to 100), Morningglory [9, 19]: 0
Plant response rating, Morningglory ([9]; 62 g ai/ha): 0
Plant response rating, Morningglory ([9]; 125 g ai/ha): 0
Plant response rating, Morningglory ([9]; 250 g ai/ha): 0
Plant response rating (scale of 0 to 100), Foxtail, Giant [10, 19]: 85
Plant response rating, Foxtail, Giant ([10]; 62 g ai/ha): 95
Plant response rating, Foxtail, Giant ([10]; 125 g ai/ha): 95
Plant response rating, Foxtail, Giant ([10]; 250 g ai/ha): 100
Plant response rating (scale of 0 to 100), Ragweed [11, 19]: 0
Plant response rating, Ragweed ([11]; 62 g ai/ha): 5
Plant response rating, Ragweed ([11]; 125 g ai/ha): 35
Plant response rating, Ragweed ([11]; 250 g ai/ha): 60
Plant response rating (scale of 0 to 100), Nutsedge, Yellow [12, 19]: 0
Plant response rating, Nutsedge, Yellow ([12]; 62 g ai/ha): 0
Plant response rating, Nutsedge, Yellow ([12]; 125 g ai/ha): 0
Plant response rating, Nutsedge, Yellow ([12]; 250 g ai/ha): 25
Plant response rating (scale of 0 to 100), Blackgrass [13, 19]: 0
Plant response rating, Blackgrass ([13]; 62 g ai/ha): 15
Plant response rating, Blackgrass ([13]; 125 g ai/ha): 60
Plant response rating, Blackgrass ([13]; 250 g ai/ha): 90
Plant response rating, Soybean ([14]; 125 g ai/ha): 5
Plant response rating, Soybean ([14]; 250 g ai/ha): 40
Plant response rating (scale of 0 to 100), Waterhemp [15, 19]: 35
Plant response rating, Waterhemp ([15]; 62 g ai/ha): 30
Plant response rating, Waterhemp ([15]; 125 g ai/ha): 50
Plant response rating, Waterhemp ([15]; 250 g ai/ha): 80
Plant response rating (scale of 0 to 100), Lambsquarters [16, 19]: 15
Plant response rating, Lambsquarters ([16]; 62 g ai/ha): 35
Plant response rating, Lambsquarters ([16]; 125 g ai/ha): 50
Plant response rating, Lambsquarters ([16]; 250 g ai/ha): 60
Plant response rating (scale of 0 to 100), Corn [17, 19]: 0
Plant response rating, Corn ([17]; 62 g ai/ha): 0
Plant response rating, Corn ([17]; 125 g ai/ha): 0
Plant response rating, Corn ([17]; 250 g ai/ha): 20
Plant response rating (scale of 0 to 100), Ryegrass, Italian [18, 19]: 0
Plant response rating, Ryegrass, Italian ([18]; 62 g ai/ha): 10
Plant response rating, Ryegrass, Italian ([18]; 125 g ai/ha): 20
Plant response rating, Ryegrass, Italian ([18]; 250 g ai/ha): 25

CN1CC(c2cccc(OC(F)(F)C(F)F)c2)C(C(=O)Nc2cccc(F)c2F)C1=O (stereo not shown) [Compound 392]
Plant response rating, Wheat ([1]; 62 g ai/ha): 35
Plant response rating, Wheat ([1]; 125 g ai/ha): 80
Plant response rating, Wheat ([1]; 250 g ai/ha): 75
Plant response rating, Velvetleaf ([2]; 62 g ai/ha): 40
Plant response rating, Velvetleaf ([2]; 125 g ai/ha): 60
Plant response rating, Velvetleaf ([2]; 250 g ai/ha): 70
Plant response rating, Pigweed ([3]; 31 g ai/ha): 75
Plant response rating, Pigweed ([3]; 62 g ai/ha): 80
Plant response rating, Pigweed ([3]; 125 g ai/ha): 85
Plant response rating, Pigweed ([3]; 250 g ai/ha): 90
Plant response rating, Johnsongrass ([5]; 31 g ai/ha): 70
Plant response rating, Johnsongrass ([5]; 62 g ai/ha): 85
Plant response rating, Johnsongrass ([5]; 125 g ai/ha): 85
Plant response rating, Johnsongrass ([5]; 250 g ai/ha): 90
Plant response rating, Oilseed Rape ([6]; 31 g ai/ha): 70
Plant response rating, Oilseed Rape ([6]; 62 g ai/ha): 80
Plant response rating, Oilseed Rape ([6]; 125 g ai/ha): 85
Plant response rating, Oilseed Rape ([6]; 250 g ai/ha): 90
Plant response rating, Crabgrass, Large ([7]; 31 g ai/ha): 90
Plant response rating, Crabgrass, Large ([7]; 62 g ai/ha): 95
Plant response rating, Crabgrass, Large ([7]; 125 g ai/ha): 95
Plant response rating, Crabgrass, Large ([7]; 250 g ai/ha): 95
Plant response rating, Barnyardgrass ([8]; 31 g ai/ha): 90
Plant response rating, Barnyardgrass ([8]; 62 g ai/ha): 90
Plant response rating, Barnyardgrass ([8]; 125 g ai/ha): 90
Plant response rating, Barnyardgrass ([8]; 250 g ai/ha): 95
Plant response rating, Morningglory ([9]; 31 g ai/ha): 0
Plant response rating, Morningglory ([9]; 62 g ai/ha): 0
Plant response rating, Morningglory ([9]; 125 g ai/ha): 0
Plant response rating, Morningglory ([9]; 250 g ai/ha): 15
Plant response rating, Foxtail, Giant ([10]; 31 g ai/ha): 90
Plant response rating, Foxtail, Giant ([10]; 62 g ai/ha): 95
Plant response rating, Foxtail, Giant ([10]; 125 g ai/ha): 95
Plant response rating, Foxtail, Giant ([10]; 250 g ai/ha): 95
Plant response rating, Ragweed ([11]; 31 g ai/ha): 70
Plant response rating, Ragweed ([11]; 62 g ai/ha): 45
Plant response rating, Ragweed ([11]; 125 g ai/ha): 60
Plant response rating, Ragweed ([11]; 250 g ai/ha): 70
Plant response rating, Nutsedge, Yellow ([12]; 31 g ai/ha): 0
Plant response rating, Nutsedge, Yellow ([12]; 62 g ai/ha): 0
Plant response rating, Nutsedge, Yellow ([12]; 125 g ai/ha): 0
Plant response rating, Nutsedge, Yellow ([12]; 250 g ai/ha): 0
Plant response rating, Blackgrass ([13]; 31 g ai/ha): 20
Plant response rating, Blackgrass ([13]; 62 g ai/ha): 45
Plant response rating, Blackgrass ([13]; 125 g ai/ha): 70
Plant response rating, Blackgrass ([13]; 250 g ai/ha): 60
Plant response rating, Soybean ([14]; 62 g ai/ha): 100
Plant response rating, Soybean ([14]; 125 g ai/ha): 15
Plant response rating, Soybean ([14]; 250 g ai/ha): 5
Plant response rating, Waterhemp ([15]; 62 g ai/ha): 85
Plant response rating, Waterhemp ([15]; 125 g ai/ha): 90
Plant response rating, Waterhemp ([15]; 250 g ai/ha): 90
Plant response rating, Lambsquarters ([16]; 31 g ai/ha): 60
Plant response rating, Lambsquarters ([16]; 62 g ai/ha): 70
Plant response rating, Lambsquarters ([16]; 125 g ai/ha): 75
Plant response rating, Lambsquarters ([16]; 250 g ai/ha): 75
Plant response rating, Corn ([17]; 31 g ai/ha): 45
Plant response rating, Corn ([17]; 62 g ai/ha): 65
Plant response rating, Corn ([17]; 125 g ai/ha): 55
Plant response rating, Corn ([17]; 250 g ai/ha): 75
Plant response rating, Ryegrass, Italian ([18]; 62 g ai/ha): 40
Plant response rating, Ryegrass, Italian ([18]; 125 g ai/ha): 55
Plant response rating, Ryegrass, Italian ([18]; 250 g ai/ha): 90
